The text below walks through data of patent US20060069084A1, “Methods of inhibiting kinases” (priority 2001, published 2006).

What all share (format): biochemical
Holding throughout (conditions): Table 6; inhibit 50% of activity at 50 μM

One assay deals with T1, JAK1 (Homo sapiens, UniProt P23458).
T1 construct: The kinase domain of humanJAK1 was amplified from U937mRNA; His tag (from pFastBac HTb vector; nickel chelate purification) (N); made in house; host or cells: baculovirus; virus made in Sf9, large-scale expression in High Five insect cells
T1 sequence (P23458 875-1153 limits assumed): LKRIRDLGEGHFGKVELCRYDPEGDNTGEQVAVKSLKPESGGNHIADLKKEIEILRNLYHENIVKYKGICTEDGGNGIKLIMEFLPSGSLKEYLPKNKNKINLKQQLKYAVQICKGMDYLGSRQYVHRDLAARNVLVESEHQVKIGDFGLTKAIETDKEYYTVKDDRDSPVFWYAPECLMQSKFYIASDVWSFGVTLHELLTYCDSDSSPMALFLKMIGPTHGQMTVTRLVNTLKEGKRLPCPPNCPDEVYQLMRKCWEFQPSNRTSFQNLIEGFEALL
The assay can be described thus: JAK1 kinase domain capture-based ELISA kinase assay. On the procedure: (§1) For screening purposes, compounds were diluted in 96 well plates at a concentration of 50 μM or 20 μM. Plates were warmed at 37° C. for 30 minutes before assay.
The kinase domain of humanJAK1 was amplified from U937mRNA using the polymerase chain reaction with the following primers: […]
JAK1 PCR products were cloned into the pFastBac HTb expression vector (Gibco) via the Xho I and Kpn I sites. The JAK1 plasmid was then transformed into competent DH10Bac cells (Gibco), and the recombinant baculovirus produced prepared for transfection into Sf9 insect cells.
(§2) Baculovirus preparations from each of the JAK family members were infected into five litres of High Five cells (Invitrogen) grown in High Five serum free medium (Invitrogen) to a cell density of approximately 1-2×10^6 cells/ml. Cells are infected with virus at a MOI of 0.8-3.0. Cells were harvested and lysed. JAK kinase domains were purified by affinity chromatography on a Probond (Invitrogen) nickel chelate affinity column.
(§3) The biotinylated substrate biotin-EGPWLEEEEEAYGWMDF-NH2 (SEQ ID NO:9) (final concentration 5 μM) was used as substrate, and tyrosine phosphorylation was quantitated following transfer to an avidin coated ELISA plate using peroxidase-linked anti-phospho-tyrosine antibody PY20.
(§4) Inhibitors were added to the assays fifteen minutes prior to the addition of ATP. Inhibitors were added in aqueous DMSO, with DMSO concentrations never exceeding 1%.
On the technique in general: An ELISA detects its analyte on a solid surface through an enzyme-linked reagent.

Another assay deals with T2, JAK2 (Homo sapiens, UniProt O60674).
T2 construct: The kinase domain of humanJAK2 was amplified from U937mRNA; His tag (from pFastBac HTc vector; nickel chelate purification) (N); made in house; host or cells: baculovirus; virus made in Sf9, large-scale expression in High Five insect cells
T2 sequence (O60674 849-1124 limits assumed): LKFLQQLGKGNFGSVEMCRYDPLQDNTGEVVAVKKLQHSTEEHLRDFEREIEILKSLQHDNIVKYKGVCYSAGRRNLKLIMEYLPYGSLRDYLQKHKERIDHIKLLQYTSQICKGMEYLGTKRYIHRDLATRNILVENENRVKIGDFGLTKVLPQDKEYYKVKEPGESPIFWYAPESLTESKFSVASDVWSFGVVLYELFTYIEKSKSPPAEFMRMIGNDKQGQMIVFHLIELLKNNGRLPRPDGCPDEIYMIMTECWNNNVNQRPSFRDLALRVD
The assay can be described thus: JAK2 kinase domain capture-based ELISA kinase assay. The method, then:
as §1
The kinase domain of humanJAK2 was amplified from U937mRNA using the polymerase chain reaction with the following primers: […]
JAK2 PCR products were cloned into the pFastBac HTc expression vector (Gibco) via the Sal I and Not I sites. The JAK2 plasmid was then transformed into competent DH10Bac cells (Gibco), and the recombinant baculovirus produced prepared for transfection into Sf9 insect cells.
as §2, §3, §4

The next assay addresses T3, JAK3 (Homo sapiens, UniProt P52333).
T3 construct: The kinase domain of humanJAK3 was amplified from U937mRNA; His tag (from pFastBac HTb vector; nickel chelate purification) (N); made in house; host or cells: baculovirus; virus made in Sf9, large-scale expression in High Five insect cells
The assay can be described thus: JAK3 kinase domain capture-based ELISA kinase assay. The method, then: as §1
The kinase domain of humanJAK3 was amplified from U937mRNA using the polymerase chain reaction with the following primers: […]
JAK3 PCR products were cloned into the pFastBac HTb expression vector (Gibco) via the Xho I and Kpn I sites. The JAK3 plasmid was then transformed into competent DH10Bac cells (Gibco), and the recombinant baculovirus produced prepared for transfection into Sf9 insect cells.
as §2, §3, §4

In another assay the target is T4, TYK2 (Homo sapiens, UniProt P29597).
T4 construct: The kinase domain of humanTYK2 was amplified from A549 mRNA; His tag (from pBlueBacHis2A vector; nickel chelate purification) (N); made in house; host or cells: baculovirus; virus made in Sf9, large-scale expression in High Five insect cells
T4 sequence (P29597 897-1176 limits assumed): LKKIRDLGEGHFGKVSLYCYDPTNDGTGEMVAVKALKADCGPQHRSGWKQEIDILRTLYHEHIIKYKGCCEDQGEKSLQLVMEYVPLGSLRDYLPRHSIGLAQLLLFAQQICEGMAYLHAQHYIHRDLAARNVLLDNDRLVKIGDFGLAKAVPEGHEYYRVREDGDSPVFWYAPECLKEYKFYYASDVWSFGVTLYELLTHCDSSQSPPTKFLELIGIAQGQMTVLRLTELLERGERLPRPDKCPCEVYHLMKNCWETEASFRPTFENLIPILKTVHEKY
The assay can be described thus: TYK2 kinase domain capture-based ELISA kinase assay. On the procedure:
as §1
The kinase domain of humanTYK2 was amplified from A549 mRNA using the polymerase chain reaction with the following primers: […]
TYK2 PCR products were cloned into pBlueBacHis2A (Invitrogen) via the EcoRI site. The recombinant TYK2 baculovirus produced was prepared for transfected into Sf9 insect cells.
as §2, §3, §4

SMILES strings stand for the structures.

The term IC50 denotes the point on the concentration scale where inhibition reaches its midpoint. A low value points to inhibition by little substance.

T3 sequence (P52333 822-1111 limits assumed): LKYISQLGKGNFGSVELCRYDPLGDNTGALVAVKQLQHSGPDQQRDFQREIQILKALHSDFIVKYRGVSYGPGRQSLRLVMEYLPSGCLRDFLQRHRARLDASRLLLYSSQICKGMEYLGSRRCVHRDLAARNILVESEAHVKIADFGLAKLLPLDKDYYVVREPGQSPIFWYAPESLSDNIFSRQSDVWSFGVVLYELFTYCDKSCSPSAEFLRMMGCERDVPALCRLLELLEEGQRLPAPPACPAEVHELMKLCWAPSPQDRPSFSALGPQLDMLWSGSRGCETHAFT

Turning to `c1ccc(-c2cn3ccnc3c(NCc3ccncc3)n2)cc1`, the IC50 against JAK1 is under 50 µM; on JAK2 it was over 50 µM; against JAK3 it was over 50 µM; against TYK2, over 50 µM.

Consider `Fc1ccccc1-c1cn2ccnc2c(Nc2ccc(N3CCOCC3)cc2)n1`, for which the concentration for half-maximal inhibition (IC50) was under 50 µM against JAK1, under 50 µM against JAK2, over 50 µM on JAK3 and under 50 µM at TYK2.

Turning to `Fc1ccc(-c2cn3ccnc3c(Nc3ccc4[nH]ccc4c3)n2)cc1Cl`, the IC50 at JAK1 is under 50 µM; on JAK2, over 50 µM; against JAK3, over 50 µM; at TYK2, under 50 µM.

As to `COc1ccc(Nc2nc(-c3ccccc3F)cn3ccnc23)cn1`, the IC50 is under 50 µM against JAK1, under 50 µM against JAK2, over 50 µM on JAK3 and over 50 µM on TYK2.

`c1ccc(Nc2nc(-c3ccco3)cn3ccnc23)cc1`: the IC50 on JAK1 is over 50 µM; at JAK2, under 50 µM; against JAK3, over 50 µM; on TYK2, under 50 µM.

Regarding `Brc1cn2ccnc2c(Nc2ccccc2)n1`, the IC50 on JAK1 is under 50 µM; at JAK2, under 50 µM; at JAK3, over 50 µM; at TYK2 it was under 50 µM.

On to `CCNc1nc(-c2ccc(N(C)C)cc2)cn2ccnc12`, for which the IC50 against JAK1 was under 50 µM; at JAK2 it was over 50 µM; on JAK3, over 50 µM; at TYK2, over 50 µM.

For `NCc1cccc(-c2cn3ccnc3c(Nc3ccccc3)n2)c1`, the half-inhibitory concentration (IC50) on JAK1 was under 50 µM; against JAK2, under 50 µM; against JAK3 it was over 50 µM; against TYK2, under 50 µM.

Regarding `c1cn2cc(-c3ccc4c(c3)OCO4)nc(Nc3ccc(N4CCOCC4)cc3)c2n1`, the half-inhibitory concentration (IC50) was under 50 µM at JAK1, under 50 µM at JAK2, over 50 µM against JAK3 and under 50 µM on TYK2.

Regarding `COc1ccccc1-c1cn2ccnc2c(Nc2ccc(N3CCOCC3)cc2)n1`, the half-inhibitory concentration (IC50) against JAK1 is under 50 µM; against JAK2, under 50 µM; on JAK3, over 50 µM; against TYK2 it was under 50 µM.

For the molecule `CN1CCCN(c2nc(-c3cccc4ccccc34)cn3ccnc23)CC1`, the half-inhibitory concentration (IC50) against JAK1 was under 50 µM; at JAK2, over 50 µM; at JAK3, over 50 µM; on TYK2 it was over 50 µM.

For `c1cn2cc(-c3ccc4c(c3)OCO4)nc(NC3CC3)c2n1`, the IC50 at JAK1 was under 50 µM; against JAK2, over 50 µM; against JAK3, over 50 µM; on TYK2, under 50 µM.

As for `Oc1ccc(-c2cn3ccnc3c(Nc3ccccc3)n2)cc1`, the concentration for half-maximal inhibition (IC50) is under 50 µM against JAK1, under 50 µM at JAK2, over 50 µM against JAK3 and over 50 µM at TYK2.

Turning to `CN1CCN(c2nc(-c3cccnc3)cn3ccnc23)CC1`, the IC50 is under 50 µM against JAK1, over 50 µM on JAK2, over 50 µM against JAK3 and over 50 µM against TYK2.

In the case of `CC(=O)Nc1cccc(-c2cn3ccnc3c(Nc3ccccc3)n2)c1`, the concentration for half-maximal inhibition (IC50) on JAK1, at JAK2, at JAK3 and against TYK2 was under 50 µM throughout.

On to `COc1cc(-c2cn3ccnc3c(NCC3CC3)n2)ccc1O`, for which the IC50 at JAK1 was under 50 µM; on JAK2, over 50 µM; on JAK3 it was over 50 µM; against TYK2, over 50 µM.

In the case of `CC(=O)c1ccc(-c2cn3ccnc3c(Nc3ccccc3)n2)s1`, the IC50 against JAK1, on JAK2, at JAK3 and on TYK2 was under 50 µM throughout.

On to `c1ccc(Nc2nc(-c3cccnc3)cn3ccnc23)cc1`, for which the IC50 on JAK1, on JAK2, against JAK3 and against TYK2 was under 50 µM in each case.

As for `Oc1cccc(-c2cn3ccnc3c(NC3CC3)n2)c1`, the IC50 is under 50 µM against JAK1, under 50 µM against JAK2, over 50 µM against JAK3 and under 50 µM on TYK2.

Take `CCNc1nc(-c2cccc(O)c2)cn2ccnc12`: the IC50 at JAK1 is under 50 µM; at JAK2, under 50 µM; against JAK3, under 50 µM; against TYK2, over 50 µM.

With `COc1cc(-c2cn3ccnc3c(NC3CC3)n2)ccc1O`, the IC50 against JAK1 was under 50 µM; against JAK2 it was under 50 µM; at JAK3, under 50 µM; against TYK2 it was over 50 µM.

For `O=C(NCCO)c1ccc(-c2cn3ccnc3c(Nc3ccccc3)n2)cc1`, the 50% inhibitory concentration (IC50) was under 50 µM against JAK1, under 50 µM against JAK2, over 50 µM at JAK3 and under 50 µM against TYK2.

On to `COc1cc(-c2cn3ccnc3c(Nc3ccccc3)n2)cc(OC)c1OC`, for which the IC50 at JAK1 was under 50 µM; at JAK2, under 50 µM; on JAK3 it was over 50 µM; on TYK2, over 50 µM.

As for `FC(F)(F)Oc1cccc(-c2cn3ccnc3c(Nc3ccccc3)n2)c1`, the 50% inhibitory concentration (IC50) on JAK1 is over 50 µM; against JAK2, under 50 µM; against JAK3 it was over 50 µM; against TYK2, over 50 µM.

As to `c1ccc2cc(-c3cn4ccnc4c(Nc4ccc(N5CCOCC5)cc4)n3)ccc2c1`, the half-inhibitory concentration (IC50) at JAK1 was under 50 µM; against JAK2, under 50 µM; on JAK3 it was over 50 µM; at TYK2, over 50 µM.

Regarding `CN(C)CCNC(=O)c1cccc(-c2cn3ccnc3c(Nc3ccc(Cl)cc3)n2)c1`, the half-inhibitory concentration (IC50) against JAK1 was under 50 µM; on JAK2, under 50 µM; on JAK3 it was over 50 µM; on TYK2 it was over 50 µM.

As for `O=C(O)CCc1ccc(-c2cn3ccnc3c(NCCc3ccncc3)n2)cc1`, the IC50 on JAK1 is over 50 µM; against JAK2, over 50 µM; against JAK3 it was under 50 µM; against TYK2, over 50 µM.

As for `Fc1ccccc1-c1cn2ccnc2c(NCCc2cccnc2)n1`, the IC50 against JAK1 was under 50 µM; against JAK2, under 50 µM; on JAK3 it was under 50 µM; against TYK2, over 50 µM.

For `CCNc1nc(-c2ccc(O)c(OC)c2)cn2ccnc12`, the IC50 against JAK1 was under 50 µM; against JAK2 it was under 50 µM; at JAK3 it was under 50 µM; against TYK2 it was over 50 µM.

Turning to `O=C(O)CCc1ccc(-c2cn3ccnc3c(NCc3ccco3)n2)cc1`, the IC50 on JAK1 was over 50 µM; against JAK2, over 50 µM; at JAK3, under 50 µM; against TYK2, under 50 µM.

Consider `CC(=O)Nc1ccc(Nc2nc(-c3ccc4c(c3)OCO4)cn3ccnc23)cc1`, for which the 50% inhibitory concentration (IC50) on JAK1, against JAK2, on JAK3 and against TYK2 was under 50 µM throughout.

For `Cc1ccc(S(=O)(=O)Nc2ccc(Nc3nc(-c4ccc(CCC(=O)O)cc4)cn4ccnc34)cc2)cc1`, the IC50 on JAK1 is under 50 µM; on JAK2, under 50 µM; against JAK3, over 50 µM; on TYK2 it was under 50 µM.

For the molecule `CCCNc1nc(-c2cccc(N)c2)cn2ccnc12`, the IC50 against JAK1 is under 50 µM; against JAK2, over 50 µM; on JAK3, over 50 µM; at TYK2, over 50 µM.

Consider `c1coc(-c2cn3ccnc3c(Nc3ccc(N4CCOCC4)cc3)n2)c1`, for which the IC50 on JAK1 was under 50 µM; against JAK2 it was under 50 µM; against JAK3, over 50 µM; at TYK2 it was under 50 µM.
